21 compounds from PubChem BioAssay (NCI) can be followed below.

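Tested at 5 concentrations; 48 h exposure; 96-well plates; endpoints linearly interpolated, else capped at highest concentration. TGI marks complete inhibition of growth.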

What all share (assay): growth of human tumour cells (NCI), 48 h
Test [1] relates to MALME-3M melanoma.
Test [2] concerns MDA-MB-435.
The test system of test [3] is HCT-15 colon.
The test system of test [4] is HOP-62 NSCLC.
The subject of test [5] is CAKI-1 renal.
For test [6], the system named is LOX IMVI melanoma.
Test [7] concerns U251 CNS.
The subject of test [8] is NCI-H460 lung.
The test system of test [9] is SF-295 CNS.
For test [10], the system named is OVCAR-4 ovarian.

With `Cc1c2cccc-2ccc2c1[nH]c1ccccc12`, the TGI in test [1] came to 4.03 µM; in [2] it was 4.68 µM; in [3], 9.01 µM; in test [4], 12.9 µM; in [5] it was 19.3 µM; in test [6] it was 6.41 µM. Also, the TGI stood at 3.17 µM in test [7], 3.57 µM in [8], 5.62 µM in [9] and 5.09 µM in [10].

`O=C1/C(=C\c2cccc(Oc3ccccc3)c2)SC(c2ccccc2)N1c1cccc([N+](=O)[O-])c1` (stereo not drawn): the TGI in test [1], in test [2], in [3], in test [4], in [5] and in test [6] was over 100 µM throughout. For the same compound, the TGI in test [7], in test [8], in [9] and in [10] was over 100 µM throughout.

On to `CC1=C2C(=O)c3ccccc3C(=O)[C@H]2C[C@@H](N2CCCCCC2=O)O1`, for which the TGI was 25.5 µM in [1]; 29.7 µM in test [2]; 47.5 µM in test [3]; 33 µM in test [4]; 35.5 µM in test [5]; 44.5 µM in test [6]. Moreover, the TGI was 50.6 µM in test [7], 33.3 µM in test [8], 35.6 µM in test [9] and 32.1 µM in [10].

As to `COC(=O)C(C(=O)C(=O)NC1Nc2ccc(C)cc2S1)c1nc2ccc(Cl)cc2[nH]c1=O` (stereo not drawn), the TGI in test [1], in test [2], in test [3], in test [4], in [5] and in [6] was over 100 µM in each case. Moreover, the TGI in test [7], in test [8], in test [9] and in test [10] was over 100 µM throughout.

On to `O=S1(=O)OCCOS(=O)(=O)C1Cc1nc2ccccc2[nH]1`, for which the TGI in [1] was over 100 µM; in test [2], over 100 µM; in test [3], over 100 µM; in test [4] it was over 100 µM; in test [5] it was 95.4 µM; in [6] it was 38.1 µM. Also, the TGI in test [7], in test [8], in [9] and in test [10] was over 100 µM in each case.

As for `N#CCCC1(CCC#N)CCCCCCC(CCC#N)(CCC#N)C(O)C1O` (stereo not drawn), the TGI in test [1], in test [2], in [3], in [4], in [5] and in [6] was over 100 µM in each case. The TGI in test [7], in test [8], in test [9] and in [10] was over 100 µM in each case.

On to `CC(C)(C)OC(=O)N1CCc2c(n(C/C=C/c3ccccc3)[nH]c2=O)C1`, for which the TGI in test [1], in [2], in [3], in test [4], in [5] and in test [6] was over 100 µM each time. For the same compound, the TGI in [7], in test [8], in test [9] and in test [10] was over 100 µM each time.

Consider `O=S(=O)(O)C1CCC(O)C2[N-]CCCC21.O=S(=O)(O)C1CCC(O)C2[N-]CCCC21.[Zn+2]` (stereo not drawn), for which the TGI in test [1], in [2], in [3], in test [4], in test [5] and in [6] was over 100 µM in each case. For the same compound, the TGI in test [7], in test [8], in test [9] and in test [10] was over 100 µM each time.

As for `NC(=O)C1=CC2C3C=CC2(O)C(=O)OC3O1` (stereo not drawn), the TGI in test [1] was 4.03 µM; in test [2], 16.5 µM; in test [3], 13.9 µM; in test [4] it was 29.9 µM; in test [5], 17 µM; in test [6] it was 5.18 µM. The TGI in test [7] was determined as 40.5 µM; in test [8], 43.2 µM; in [9], 27.1 µM; in test [10] it was 13.2 µM.

`CCCCCCOP(=O)(OCCCCCC)OC(C(=O)OC)C(F)(F)F` (stereo not drawn): the TGI in test [1], in test [2], in test [3], in test [4], in test [5] and in test [6] was over 100 µM throughout. Also, the TGI in test [7], in [9] and in test [10] was over 100 µM throughout.

As to `CCCCCCCCCCCCCCCCOCC(Cl)COP(=O)(O)OP(=O)(O)OCC1OC(n2cnc3c(N)ncnc32)C(O)C1O` (stereo not drawn), the TGI in [1], in test [2], in test [3], in [4], in test [5] and in [6] was over 100 µM each time. The TGI in test [7], in test [8], in test [9] and in [10] was over 100 µM each time.

As for `COc1ccc(/C=C2\CCC(CNc3ccc(Br)cc3)C2=O)cc1` (stereo not drawn), the TGI in [1], in [2], in test [3], in [4], in test [5] and in test [6] was over 100 µM each time. Moreover, the TGI in test [7], in test [8], in [9] and in test [10] was over 100 µM in each case.

Consider `COc1ccc(C2=C(OC(=O)N(C)C)c3cccn3-c3cc(Cl)ccc3S2)cc1`, for which the TGI in test [1], in test [2], in test [3], in test [4], in test [5] and in [6] was over 10 µM in each case. Moreover, the TGI in test [9] and in test [10] was over 10 µM throughout.

Regarding `COc1cccc(CN(C(=O)/C=C\Sc2ccccc2)C(C)(C)C)c1`, the TGI in test [2], in test [3], in [4], in test [5], in [6] and in test [7] was over 100 µM each time. The TGI in test [9] and in test [10] was over 100 µM throughout.

With `CC1=C2NCN(C)N=C2C(C#N)(C#N)C1(C#N)C#N`, the TGI is 44.2 µM in test [1]; 46.6 µM in test [2]; 40.5 µM in [3]; over 100 µM in test [4]; 17.9 µM in test [5]; over 54.4 µM in test [6]. The TGI is over 76.9 µM in test [7], over 100 µM in test [9] and 34.8 µM in test [10].

With `CNc1ccc(S(=O)Nc2ccccc2)cc1` (stereo not drawn), the TGI in test [1], in test [2], in [3], in [4], in test [6] and in [7] was over 100 µM throughout. Also, the TGI in [8], in test [9] and in test [10] was over 100 µM each time.

As to `CC1(C)[C@@H]2CC[C@@]1(C)[C@H](O)[C@@H]2SCc1ccccc1`, the TGI in [2] came to 33.2 µM; in [3] it was 29.7 µM; in test [4], 33 µM; in test [5], 43.1 µM; in test [6], 36.6 µM; in test [7], 31.7 µM. For the same compound, the figures for the TGI in test [8], in test [9] and in test [10] were 39.9 µM, 33 µM and 26.6 µM, respectively.

On to `COC(=O)c1c(OC)cc2cc3c(c(O)c2c1C)C(=O)C1(O)C(=O)C=C(OC)C(OC(=O)CC(C)N)=C1C3=O` (stereo not drawn), for which the TGI in test [2], in [3], in [4], in test [5], in [6] and in [7] was over 100 µM throughout. The TGI in [8] is over 100 µM; in test [9] it was over 100 µM; in test [10], 90.1 µM.

Regarding `O=C(c1ccco1)C1CC(c2ccc3ccccc3c2O)=NN1c1ccc([N+](=O)[O-])cc1[N+](=O)[O-]` (stereo not drawn), the TGI in test [1], in test [2], in test [3], in test [4], in test [5] and in [7] was over 100 µM each time. In addition, the TGI in test [8] was 33.9 µM; in [9] it was over 100 µM; in [10], over 100 µM.

On to `C=C[C@@](C)(/C=C/c1ccc(O)cc1)CCC=C(C)C`, for which the TGI was 33.9 µM in [2]; 32.7 µM in [3]; 33.8 µM in [4]; 32.6 µM in [5]; 32.2 µM in [6]; 30.6 µM in test [7]. For the same compound, the TGI in test [8] was 29.2 µM; in test [9] it was 34.4 µM; in [10], 28.6 µM.

`O=C(CSc1nc2ccc(I)cc2c(=O)n1Cc1ccccc1)NN1C(=O)CCC1=O`: the TGI in [2] is over 100 µM; in [3], over 100 µM; in test [4], over 100 µM; in test [5], 6.91 µM; in test [6], over 100 µM; in test [7], over 100 µM. The TGI in test [8] was over 100 µM; in test [9] it was over 100 µM; in test [10], 75.9 µM.
